Data taken from article PMC6706161, “A surface plasmon resonance-based method for monitoring interactions between G protein-coupled receptors and interacting proteins” (Journal of Biological Methods, 2016).
No end group written: not given here.

Biological target: T1, S100B (Bos taurus, UniProt P02638)
T1 construct: S100B, purified from bovine brain; purchased Merck Millipore 559290; host or cells: bovine brain (tissue-purified)
T1 sequence (P02638 2-92 limits assumed): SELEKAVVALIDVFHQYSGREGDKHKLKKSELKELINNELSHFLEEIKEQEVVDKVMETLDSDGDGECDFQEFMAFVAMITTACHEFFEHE
Test: SPR (Biacore 3000) steady-state binding of S100B to immobilized peptide h5-HT7_IC3
Details: 95% CI [3.93, 6.71], peptide amine-coupled to CM5 chip (about 1200 RU), mock-immobilized reference surface, analyte S100B purified from bovine brain, 0.38 to 12 µM (two experiments) and 1.25 to 40 µM (third), duplicates, running buffer 10 mM HEPES, 150 mM NaCl, 4 mM CaCl2, 0.005% Tween-20, pH 7.5, 25 °C, one-site binding model, three experiments, read-out: Kd (dissociation constant, affinity)
Text: • Custom peptides (> 95% pure) can be obtained from a number of commercial sources. In our hands, peptides from Selleck Chemicals (Houston, TX) have worked well. • S100B, purified from bovine brain (Cat. # 559290; Merck Millipore, Darmstadt, Germany) • Sensor Chip CM5 (single: Cat. # BR-1003-99; pack of three chips: Cat. # BR-1000-12; GE Healthcare) • Plastic Vials, Ø 7 mm; pack of 1000 vials (Cat. # BR-1002-12; GE Healthcare) • Rubber Caps, type 3; pack of 600 caps (Cat. # BR-1005-02; GE Healthcare) • Immobilization buffers: 10 mM sodium acetate, pH 4.0 (Cat. # BR-1003-49) and pH 4.5 (Cat. # BR-1003-50; GE Healthcare); 1 × 50 ml each • HBS-EP (Cat. # BR100188, 6 x 200 ml; GE Healthcare) • NaOH (Cat. # S8045; Sigma-Aldrich, Stockholm, Sweden) • DMSO (Cat. # D2650; Sigma-Aldrich) • Amine Coupling Kit (contains EDC, NHS and 1.0 M ethanolamine-HCl pH 8.5; Cat. # BR100050; GE Healthcare) • HEPES (Cat. # H3375; Sigma-Aldrich) • NaCl (Cat. # S7653; Sigma-Aldrich) • CaCl2 · 2H2O (Cat. # C8106; Sigma-Aldrich) • Tween-20 (Cat. # P1379; Sigma-Aldrich) • EDTA disodium salt (Cat. # E5134; Sigma-Aldrich) • Syringe filters, 0.2 µm pore size (Cat. # 83.1826.001; Sarstedt, Helsingborg, Sweden) • Bottle top filtration unit, 0.45 µm pore size (Cat. # 83.1823.100; Sarstedt)
Running buffer with Ca2+: 10 mM HEPES, 150 mM NaCl, 4 mM CaCl2, 0.005% Tween-20; pH 7.5. Store at 4 °C between experiments. […]

Sequence: KFPGFPRVEPDSVIALNGIV [h5-HT7_IC3]
- Kd: 5.32 µM
